Reference: publication PMC2639639, “Identification of Three Classes of Heteroaromatic Compounds with Activity against Intracellular Trypanosoma cruzi by Chemical Library Screening” (PLoS Neglected Tropical Diseases, 2009)
Entries after “also recorded” stand apart in the source; their conditions may differ. Read-outs that look alike come from different tables or passages of the source.

Tests used:
Leishmania = test system: Leishmania; parameters: method as in PMID 15891135; details: read-out: IC50 (Leishmania positive control); cited from earlier work
[1] = test system: T. cruzi (Tulahuen strain) expressing β-galactosidase; experiment: T. cruzi growth inhibition assay (β-gal activity, infection of NIH/3T3 cells); format: cell-based, Trypanosoma cruzi; details: Trypanosoma cruzi, TULAHUEN, NIH3T3, 96 h, 4 days
Experimental: NIH/3T3 cells and parasites were harvested, washed once and resuspended in DMEM supplemented with 2% FBS and Pen-Strep-Glut. […] Different numbers of NIH/3T3 cells were seeded in 96-well plates. After 3 h, compounds were added at the indicated concentrations and mixed by pipetting. BZN tablets (Rochagan, Roche) dissolved in DMSO and 4 µM Amphotericin B solution (Sigma-Aldrich) were used as positive controls. Different numbers of T. cruzi parasites were added in a final volume of 200 µl/well. After 4 days, 50 µl of PBS containing 0.5% of the detergent NP40 and 100 µM Chlorophenol Red-β-D-galactoside (CPRG) (Fluka) were added. Plates were incubated at 37°C for 4 h and absorbance was read at 590 nm using a Tecan Spectra Mini plate reader.
To calculate the Z′ factor, we used the formula described by Zhang et al.: Z′ = 1−[(3σc++3σc−) / |μc+−μc−|] where σc+ = standard deviation (SD) of positive control, σc− = SD of negative control, μc+ = mean of positive control, μc− = mean of negative control. Subsequently, the best ratio was used for all growth inhibition assays (50.000 cells and parasites, multiplicity of infection (MOI) 1∶1).
To determine IC50 values, β-gal activity (Abs590) was plotted against compound concentration for each compound. The IC50 was determined as the concentration at which the activity (absorbance) was half that in the absence of compound. Mean IC50 values are the average of independent experiments performed in triplicate on three different days.

T. cruzi = details: cited from earlier work
NIH/3T3 cells = experiment: Cytotoxicity assay (Alamar Blue) on NIH/3T3 cells; format: cell-based; details: 4 days
Experimental: (§1) Cells (NIH/3T3 or HepG2) were washed and plated at a density of 50,000 cells/well of 96-well plates in 200 µl and allowed to adhere for 3 h. Twenty-four hour assays were done in DMEM without phenol red supplemented with 10% FBS and Pen-Strep-Glut, while 4-day assays were done in the same medium containing 2% FBS. Drugs were added and mixed. After 1 or 4 days, 20 µl of Alamar Blue (Biosource, Invitrogen) was added. Plates were incubated for 4 h (HepG2) or 6 h (NIH/3T3) at 37°C and fluorescence was read using a Labsystems Fluoroskan II plate reader (excitation: 544 nm, emission: 590 nm) .
(§2) To determine TC50 values, fluorescence was plotted against inhibitor concentration. TC50 was determined as the concentration at which cytotoxicity (fluorescence) was half that in the absence of inhibitor.

HepG2 cells = experiment: Cytotoxicity assay (Alamar Blue) on HepG2 cells; format: cell-based, human
Experimental: as §1, §2

[2] = test system: Free trypomastigotes (β-gal T. cruzi); experiment: T. cruzi lysis assay; format: cell-based; details: Trypanosoma cruzi; lysis assay, 100,000 parasites, 24 h
Experimental: Trypomastigotes were rinsed once and plated in 96-well plates at 100,000/well with the compounds in a final volume of 200 µl of DMEM without phenol red supplemented with 2% FBS, Pen-Strep-Glut and 100 µM CPRG. Plates were incubated for 24 h at 37°C and absorbance was read at 590 nm.

L. major = experiment: Leishmania growth inhibition assay in bone marrow-derived macrophages (L. major); format: cell-based; details: 5 days; for Reduction in parasite burden, L. major: 2 µM, added 2 h post-infection of macrophages; for IC50: Leishmania major, Macrophage, 120 h, macrophages, read-out: estimated IC50 against intracellular L. major
Experimental: (§3) Adherent bone marrow-derived macrophages were harvested in cold DMEM+0.5 mM EDTA and seeded into an 8-well Lab-Tek II chambered coverglass (Nalge Nunc International, Naperville, IL) at a concentration of 50,000 cells/chamber 24 h before being used for infections.
(§4) L. major and L. amazonensis parasites were opsonized for 30 min by incubation in DMEM containing 4% BALB/c serum and then allowed to invade macrophages in 200 µl DMEM supplemented with 10% FBS and Pen-Strep-Glut, at a MOI of 3 parasites per macrophage for 2 h at 33°C (5% CO2, 95% air humidity),[17]. Thereafter, non-phagocytosed parasites were washed off, and the cultures were further incubated in 300 µl of medium in the presence or the absence of drugs at the indicated concentration for 3 days for L. amazonensis and 5 days for L. major. Medium was changed and drugs were added again at the same concentration on day 2 post-infection. Intracellular parasites were assessed after staining with DAPI (3 µM) by fluorescence microscopy. The total number of amastigotes/500 macrophages was counted in each well. Kruskal-Wallis test was used to analyze the data, followed by a Dunn's post-comparison test.

L. amazonensis = experiment: Leishmania growth inhibition assay in bone marrow-derived macrophages (L. amazonensis); format: cell-based; details: 3 days; for Reduction in parasite burden, L. amazonensis: 2 µM, added 2 h post-infection of macrophages; for IC50: Leishmania amazonensis, Macrophage, 72 h, macrophages, read-out: estimated IC50 against intracellular L. amazonensis
Experimental: as §3, §4

[3] = test system: intracellularly growing T. cruzi amastigotes; experiment: Development assay with immunofluorescence (intracellular amastigotes, Tulahuen β-gal strain); format: cell-based, Trypanosoma cruzi; details: for Morphology of intracellularly growing T. cruzi / Number of parasites per infected cell (intracellular replication): added after 2 h infection; for Morphology of intracellularly growing T. cruzi: fixed after 2 or 3 days, PCH1 100 nM, NT1 400 nM, CX1 90 nM; for Number of parasites per infected cell (intracellular replication): 2 days
Experimental: (§5) Fifty thousand NIH/3T3 cells were seeded on sterile glass coverslips in 12-well plates and allowed to adhere overnight. Five million parasites were added (MOI 100∶1) and allowed to infect for 2 h in DMEM+2% FBS and Pen-Strep-Glut. Parasites were rinsed out three times with PBS. Infected cells were further incubated and fixed for 15 min with 4% paraformaldehyde at the times indicated.
(§6) Fixed cells on coverslips were rinsed with PBS, permeabilized for 15 min in PBS with 0.1% Triton X-100 (Sigma-Aldrich). After blocking for 20 min in PBS with 10% goat serum, 1% bovine serum albumin, 100 mM glycine and 0.05% sodium azide, cells were incubated for 1 h at room temperature with a polyclonal rabbit anti-T. cruzi (gift from Dr B. Burleigh, Harvard School of Public Health, Boston, MA) at 1∶2000 dilution. After rinsing, an Alexa Fluor® 488 goat anti-rabbit IgG secondary antibody (Molecular Probes, Invitrogen) was added for 1 h at a 1∶800 dilution. DNA was stained with DAPI and coverslips were mounted on Mowiol. To determine the number of parasites per infected cell, between 200 and 300 infected cells per coverslip were scored in triplicate samples using an inverted Olympus IX70 microscope with a 60× oil objective. Data are presented as mean±standard deviation. Images were taken with the same microscope.

T. cruzi Y strain = experiment: Development assay with immunofluorescence (Y strain); format: cell-based, Trypanosoma cruzi; details: added after 2 h infection, 2 days
Experimental: as §5, §6

mammalian cells = experiment: Cytotoxicity on mammalian cells (cell type not given); format: cell-based; details: type of mammalian cells and duration not specified at the place
Experimental: as §1, §2

[4] = β-gal T. cruzi Tulahuen, 50.000 NIH/3T3 cells and parasites (MOI 1:1), read-out: IC50 Intracellular growth

SMILES | IC50 (Leishmania) [nM] | IC50 ([1]; β-gal T. cruzi Tulahuen in NIH/3T3 cells, read-out: IC50 T. cruzi growth inhibition) [nM] | IC50 (T. cruzi; read-out: IC50 against T. cruzi (reported)) [nM] | IC50 [1, 4] [nM] | TC50 NIH/3T3 cells at 4 days (NIH/3T3 cells) [nM] | TC50 HepG2 cells at 24 h (HepG2 cells) [nM] | TC50 HepG2 cells at 4 days (HepG2 cells) [nM] | IC50 [2] [nM] | Reduction in parasite burden, L. major (L. major) | IC50 (L. major) [nM] | Reduction in parasite burden, L. amazonensis (L. amazonensis) [%] | IC50 (L. amazonensis) [nM] | Phenotype of intracellular T. cruzi, compounds added 2 days after infection [3] | Morphology of intracellularly growing T. cruzi [3] | Effect on intracellular T. cruzi Y strain (T. cruzi Y strain) | Toxicity (TC50) versus anti-trypanosomal activity (IC50) (mammalian cells) | IC50 (T. cruzi; read-out: IC50 against T. cruzi in vitro) [nM] | Number of parasites per infected cell (intracellular replication) [3]
C[C@@H]1[C@H](O)[C@@H](C)/C=C/C=C/C=C/C=C/C=C/C=C/C=C/[C@H](O[C@@H]2O[C@H](C)[C@@H](O)[C@H](N)[C@@H]2O)C[C@@H]2O[C@](O)(C[C@@H](O)C[C@@H](O)[C@H](O)CC[C@@H](O)C[C@@H](O)CC(=O)O[C@H]1C)C[C@H](O)[C@H]2C(=O)O [Amphotericin B] | 100 |  |  |  |  |  |  |  |  |  |  |  |  |  |  |  |  | 
O=C(Cn1ccnc1[N+](=O)[O-])NCc1ccccc1 [BZN, benznidazole, reference compound] |  | 1150 | 1500 |  |  |  |  |  |  |  |  |  |  |  |  |  |  | 
Cc1cc(OCCCCCCn2ccnc2)cc(C)c1Cl [CX1, 1-[6-(4-chloro-3,5-dimethylphenoxy)hexyl]-1H-imidazole] |  |  |  | 23 ± 7 | 16000 ± 6000 | 57000 ± 8000 | 12000 ± 4000 | 13500 ± 1000 | ~70% | ~500 | 70 | ~500 | induced parasite lysis and host cell apoptosis in concentrations as low as 90 nM | displayed pycnotic nuclei (star) and debris of parasites protein and DNA throughout the cytoplasm | induced parasite lysis with morphological changes; also recorded: dose effect on the Y strain of T. cruzi was similar to the β-gal-expressing Tulahuen strain | over 500 fold |  | 
OC(Cn1cncn1)(Cn1cncn1)c1ccc(F)cc1F [Fluconazole, fluconazole] |  |  |  |  |  |  |  |  |  |  |  |  |  |  |  |  | 8000 | 
O=C(Cn1cnc([N+](=O)[O-])n1)Nc1cc(Oc2cccc(C(F)(F)F)c2)cc([N+](=O)[O-])c1 [NT1, 2-(3-nitro-1H-1,2,4-triazol-1-yl)-N-{3-nitro-5-[3-(trifluoromethyl)phenoxy]phenyl}acetamide] |  |  |  | 190 ± 40 | 14000 ± 6000 | 30000 ± 10000 | 7600 ± 300 | 6800 ± 900 | ~80% | ~500 | 50 | ~500 | had a trypanostatic effect | inhibited replication of parasites without altering their overall morphology | inhibit intracellular replication of T. cruzi Y strain; also recorded: displayed activity on the Y strain, but at higher concentrations |  |  | induced a growth arrest of intracellular T. cruzi
O=C(NN=Cc1ccc(-c2cccc(Cl)c2Cl)o1)c1ccccn1 [PCH1, N′-{[5-(2,3-dichlorophenyl)-2-furyl]methylene}-2-pyridinecarbohydrazide] |  |  |  | 54 ± 10 | >300000 | >300000 | 66000 ± 7000 | 240000 ± 60000 | about 50% | ~2000 | 70 | ~100 | induced major defects in cell division at the IC100 and parasite lysis at higher doses | larger amastigotes containing multiple disorganized nuclei and kinetoplasts were observed | inhibit intracellular replication of T. cruzi Y strain |  |  | induced a growth arrest of intracellular T. cruzi
